Results as given in US5411971A, “N-alkylenepiperidino compounds, their enantiomers and pharmaceutical compositions” (Elf Sanofi, priority 1991, dated 1995).
Where a name gives a salt, the structure may show the parent alone. Blank lines part the entries; values can stand above or below the compound they belong to.

Experiments:
[1] = test system: substance P binding; assay: Antagonism of binding of substance P (rat cortex membranes or IM9 cells, not stated which); conditions: preparation (rat cortex membranes or IM9 lymphoblastic cells) not given; read-out: Ki, antagonises the binding of substance P
[2] = target: T1, neurokinin A binding, rat duodenum membranes (Rattus norvegicus, UniProt P16610); assay: Antagonism of binding to NKA (neurokinin A), rat duodenum membranes; conditions: read-out: Ki, antagonises the binding of neurokinin A
T1 construct: rat duodenum membranes; from tissue; host or cells: rat duodenum membranes
T1 sequence (P16610 1-390): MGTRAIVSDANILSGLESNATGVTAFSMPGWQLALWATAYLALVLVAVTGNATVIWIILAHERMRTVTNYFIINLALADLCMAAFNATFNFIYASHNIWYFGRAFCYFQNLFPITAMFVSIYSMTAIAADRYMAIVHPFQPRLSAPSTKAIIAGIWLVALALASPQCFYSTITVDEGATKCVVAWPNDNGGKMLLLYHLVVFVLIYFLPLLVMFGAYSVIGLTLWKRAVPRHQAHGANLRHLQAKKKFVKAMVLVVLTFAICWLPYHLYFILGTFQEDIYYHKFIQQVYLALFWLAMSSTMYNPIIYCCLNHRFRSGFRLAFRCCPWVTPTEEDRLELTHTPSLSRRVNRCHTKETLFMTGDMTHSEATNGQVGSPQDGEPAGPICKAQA

[3] = target: T2, eledoisin binding, rat membranes (Rattus norvegicus, UniProt P16177); assay: Antagonism of binding to eledoisin, rat membranes; conditions: read-out: Ki, antagonises the binding of eledoisin
T2 construct: rat membranes; from tissue; brain cortex inferred from the cited Foster et al. 1988
T2 sequence (P16177 1-452): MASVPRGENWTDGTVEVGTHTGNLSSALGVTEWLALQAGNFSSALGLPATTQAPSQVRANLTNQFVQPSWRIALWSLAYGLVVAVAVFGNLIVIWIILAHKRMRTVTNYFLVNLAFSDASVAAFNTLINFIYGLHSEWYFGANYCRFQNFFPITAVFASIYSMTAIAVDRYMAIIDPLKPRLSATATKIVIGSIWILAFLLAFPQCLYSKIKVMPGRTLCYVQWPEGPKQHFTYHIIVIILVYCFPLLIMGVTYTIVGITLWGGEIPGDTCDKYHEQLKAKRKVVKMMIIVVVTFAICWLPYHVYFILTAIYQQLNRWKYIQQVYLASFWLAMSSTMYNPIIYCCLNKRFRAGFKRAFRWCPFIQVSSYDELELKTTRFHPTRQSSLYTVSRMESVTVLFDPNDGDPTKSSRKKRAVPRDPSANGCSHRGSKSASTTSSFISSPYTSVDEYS
Source text: Foster et al., Br. J. Pharmacol., 1988, 94, 602-608.
Eledoisin is a peptide of batrachian origin which is equivalent to neurokinin B.

Structure (SMILES): O=C(NCC(CCN1CCC(Sc2ccccn2)CC1)c1ccc(Cl)c(Cl)c1)c1ccc(Cl)cc1Cl (stereo not drawn) [Compound 4]
- Ki [1]: 41 nM

Structure (SMILES): CC(=O)N(c1ccccc1)C1CCN(CCC(CN(C)C(=O)c2ccccc2)c2ccc(Cl)c(Cl)c2)CC1 (stereo not drawn) [Compound 8, N-[4-(N'-4-Acetylanilino-1-piperidinyl)-2-(3,4-dichlorophenyl)butyl]-N-methylbenzamide hydrochloride]
- Ki [2]: 5.5 nM

- Ki [3]: 400 nM
Structure (SMILES): O=C(NCC(CCN1CCC(Nc2ccccc2)CC1)c1ccc(Cl)c(Cl)c1)c1ccc(F)c2ccccc12 (stereo not drawn) [Compound 9]
